Experimental data taken from ChEMBL document CHEMBL1201862, “PubChem BioAssay data set” (2004).
The source made the active and inactive calls. For most assays here, no stated cut-off is given here; in the data, actives have a measured EC50 and inactives only a lower limit.

Assays:
[1] = molecular target: T1, RNA-binding protein pos-1 (Caenorhabditis elegans, UniProt G5EF15); assay: disruptors of C. elegans POS-1 RNA interaction – biochemical, fluorescence polarization, dose response (AID 1964);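 further: purified POS-1 fused to maltose binding protein made in E. coli; potency of compounds blocking POS-1 binding to fluorescent RNA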
T1 sequence (G5EF15 whole entry): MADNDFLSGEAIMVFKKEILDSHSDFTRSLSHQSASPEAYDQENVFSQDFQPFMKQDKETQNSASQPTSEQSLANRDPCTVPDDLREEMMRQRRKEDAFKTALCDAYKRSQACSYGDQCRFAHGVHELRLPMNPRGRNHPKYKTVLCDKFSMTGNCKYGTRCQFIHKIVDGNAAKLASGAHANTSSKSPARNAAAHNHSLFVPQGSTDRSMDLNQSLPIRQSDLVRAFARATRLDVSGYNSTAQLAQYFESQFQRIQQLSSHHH

[2] = molecular target: T2, Zinc finger protein mex-5 (Caenorhabditis elegans, UniProt Q9XUB2); assay: potency of MEX-5 RNA-binding blockers – biochemical, C. elegans, fluorescence polarization, dose response (AID 1960)
T2 sequence (Q9XUB2 whole entry): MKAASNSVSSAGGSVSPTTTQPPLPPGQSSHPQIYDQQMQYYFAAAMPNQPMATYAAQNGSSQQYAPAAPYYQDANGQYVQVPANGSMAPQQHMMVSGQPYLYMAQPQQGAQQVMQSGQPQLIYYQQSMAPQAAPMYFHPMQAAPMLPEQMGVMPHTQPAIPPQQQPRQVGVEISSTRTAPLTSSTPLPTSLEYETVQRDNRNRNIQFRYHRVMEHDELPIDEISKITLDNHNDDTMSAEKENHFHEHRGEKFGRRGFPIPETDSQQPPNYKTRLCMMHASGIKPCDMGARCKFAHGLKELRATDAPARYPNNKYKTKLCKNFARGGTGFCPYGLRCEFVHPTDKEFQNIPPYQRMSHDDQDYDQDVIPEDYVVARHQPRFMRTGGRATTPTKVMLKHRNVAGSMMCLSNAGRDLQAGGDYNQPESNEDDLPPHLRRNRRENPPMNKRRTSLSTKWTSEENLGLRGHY

[3] = molecular target: Luciferin 4-monooxygenase (Photinus pyralis, UniProt P08659); assay: inhibition of purified Photinus pyralis luciferase – biochemical, luminescence, dose response (AID 1891)
[4] = Luminescence Cell-Based Dose Confirmation HTS to Identify Inhibitors of Platelet Dense Granule Release. [Related pubchem assays: 1663 (Primary HTS), 1678 (Summary of Project)]; type: functional
[5] = system: Streptococcus sp. 'group A'; assay: Streptococcus pyogenes SK(-)GAS viability under kanamycin – luminescence, BacTiterGlo, confirmation, counter-screen for streptokinase expression inhibitor project, dose response (AID 1900); type: functional, organism-based
[6] = molecular target: T3, Streptokinase A (Streptococcus pyogenes serotype M1, UniProt P10520); assay: viability-normalized secreted streptokinase activity reduction – plasminogen activation absorbance, OD405, dose response (AID 1914); type: functional, Streptococcus pyogenes M1 GAS;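 further: secreted streptokinase activity via plasminogen activation per viability signal from cell pellet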
T3 sequence (P10520 whole entry): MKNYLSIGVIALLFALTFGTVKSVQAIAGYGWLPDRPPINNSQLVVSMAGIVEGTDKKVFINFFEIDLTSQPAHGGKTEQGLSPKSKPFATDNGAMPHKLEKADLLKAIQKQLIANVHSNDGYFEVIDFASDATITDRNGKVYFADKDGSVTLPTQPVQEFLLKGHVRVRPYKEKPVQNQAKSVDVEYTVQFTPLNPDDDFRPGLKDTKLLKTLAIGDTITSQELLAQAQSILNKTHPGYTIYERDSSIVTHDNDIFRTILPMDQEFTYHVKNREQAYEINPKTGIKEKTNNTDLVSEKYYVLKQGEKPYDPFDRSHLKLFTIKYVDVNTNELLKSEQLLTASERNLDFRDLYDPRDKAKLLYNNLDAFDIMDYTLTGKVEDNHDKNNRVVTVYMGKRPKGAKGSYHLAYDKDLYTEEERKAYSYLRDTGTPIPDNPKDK

[7] = system: Streptococcus; assay: GAS UMAA2166 growth inhibition – luminescence, BacTiterGlo, counter-screen for streptokinase expression inhibitor project, dose response (AID 1915); type: functional, organism-based;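 further: potency for reduction of bacterial viability or growth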
[8] = molecular target: T4, Replicative DNA helicase DnaB (Mycobacterium tuberculosis, UniProt P9WMR3); assay: DnaB intein splicing inhibitors, dose response, biochemical, cell-free fluorescence (AID 449749); type: functional
T4 sequence (P9WMR3 whole entry): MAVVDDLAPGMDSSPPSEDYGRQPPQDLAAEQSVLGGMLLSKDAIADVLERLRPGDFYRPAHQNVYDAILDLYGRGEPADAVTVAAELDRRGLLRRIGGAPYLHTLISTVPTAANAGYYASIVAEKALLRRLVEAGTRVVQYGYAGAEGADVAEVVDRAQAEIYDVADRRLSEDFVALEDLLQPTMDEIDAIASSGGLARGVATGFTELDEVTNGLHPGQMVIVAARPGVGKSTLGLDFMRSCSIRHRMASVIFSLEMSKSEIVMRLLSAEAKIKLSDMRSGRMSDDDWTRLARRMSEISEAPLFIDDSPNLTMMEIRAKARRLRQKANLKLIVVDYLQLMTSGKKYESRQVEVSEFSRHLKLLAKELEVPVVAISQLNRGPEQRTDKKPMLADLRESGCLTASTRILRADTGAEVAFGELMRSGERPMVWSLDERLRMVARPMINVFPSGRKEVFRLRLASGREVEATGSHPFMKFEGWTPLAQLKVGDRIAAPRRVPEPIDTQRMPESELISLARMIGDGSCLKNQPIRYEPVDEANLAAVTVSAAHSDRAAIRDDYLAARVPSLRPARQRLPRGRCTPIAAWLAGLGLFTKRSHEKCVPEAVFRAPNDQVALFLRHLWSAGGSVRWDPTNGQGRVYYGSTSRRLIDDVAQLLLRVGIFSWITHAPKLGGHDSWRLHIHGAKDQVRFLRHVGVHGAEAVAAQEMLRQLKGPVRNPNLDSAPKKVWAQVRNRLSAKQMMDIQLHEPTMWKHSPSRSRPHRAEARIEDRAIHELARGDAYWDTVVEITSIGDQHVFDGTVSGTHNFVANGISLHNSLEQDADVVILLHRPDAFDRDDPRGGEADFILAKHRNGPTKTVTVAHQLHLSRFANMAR

[9] = molecular target: T5, Protein RecA (Mycobacterium tuberculosis, UniProt P9WHJ3); assay: Fluorescence Cell-Free Homogeneous Dose Retest to Identify Inhibitors of RecA-Intein Splicing Activity. [Related pubchem assays (depositor defined):AID2097, AID2223, AID489010, AID492950]; type: functional
T5 sequence (P9WHJ3 whole entry): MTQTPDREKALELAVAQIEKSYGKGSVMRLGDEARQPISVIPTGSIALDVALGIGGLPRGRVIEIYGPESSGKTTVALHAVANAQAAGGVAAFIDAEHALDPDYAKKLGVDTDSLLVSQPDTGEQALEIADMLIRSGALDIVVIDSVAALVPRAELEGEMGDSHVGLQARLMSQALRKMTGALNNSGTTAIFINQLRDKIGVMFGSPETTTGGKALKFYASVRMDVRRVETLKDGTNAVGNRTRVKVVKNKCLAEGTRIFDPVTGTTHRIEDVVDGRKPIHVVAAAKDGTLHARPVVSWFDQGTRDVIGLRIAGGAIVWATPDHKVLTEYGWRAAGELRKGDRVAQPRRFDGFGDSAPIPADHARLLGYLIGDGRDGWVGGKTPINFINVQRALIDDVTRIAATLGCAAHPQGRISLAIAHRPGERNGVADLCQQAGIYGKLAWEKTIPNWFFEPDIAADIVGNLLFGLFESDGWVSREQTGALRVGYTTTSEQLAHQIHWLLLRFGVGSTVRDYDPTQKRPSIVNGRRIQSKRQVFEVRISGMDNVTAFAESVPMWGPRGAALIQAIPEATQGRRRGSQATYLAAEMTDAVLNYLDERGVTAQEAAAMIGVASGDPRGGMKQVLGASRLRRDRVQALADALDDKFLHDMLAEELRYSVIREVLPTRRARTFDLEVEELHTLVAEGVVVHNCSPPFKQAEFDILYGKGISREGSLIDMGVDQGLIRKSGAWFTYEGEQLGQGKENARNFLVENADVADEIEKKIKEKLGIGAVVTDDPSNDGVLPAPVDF

[10] = molecular target: Cytochrome P450 3A4 (Homo sapiens, UniProt P08684);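 further: CYP3A4 tested as one member of a cytochrome P450 panel screen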
[11] = Luminescence Cell-Based Dose Retest to Confirm Inhibitors of Cancer Stem Cells. [Related pubchem assays (depositor defined):AID2717, AID2721]; type: functional; settings: Homo sapiens

Chain of Luciferin 4-monooxygenase (P08659 whole entry): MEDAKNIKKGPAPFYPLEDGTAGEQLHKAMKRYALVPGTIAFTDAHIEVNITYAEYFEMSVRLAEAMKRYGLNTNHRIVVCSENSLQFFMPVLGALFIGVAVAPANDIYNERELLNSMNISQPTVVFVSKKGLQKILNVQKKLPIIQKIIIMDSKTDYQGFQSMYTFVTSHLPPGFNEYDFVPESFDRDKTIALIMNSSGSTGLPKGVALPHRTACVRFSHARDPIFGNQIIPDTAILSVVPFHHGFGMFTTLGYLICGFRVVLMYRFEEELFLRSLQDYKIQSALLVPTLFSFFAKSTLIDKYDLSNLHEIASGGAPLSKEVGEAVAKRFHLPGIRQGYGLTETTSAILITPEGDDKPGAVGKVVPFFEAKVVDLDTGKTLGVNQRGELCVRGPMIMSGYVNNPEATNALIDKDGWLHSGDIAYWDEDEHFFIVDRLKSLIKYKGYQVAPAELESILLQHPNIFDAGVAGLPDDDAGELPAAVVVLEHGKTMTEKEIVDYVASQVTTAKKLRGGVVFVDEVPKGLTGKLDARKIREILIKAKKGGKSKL
Chain of Cytochrome P450 3A4 (P08684 whole entry): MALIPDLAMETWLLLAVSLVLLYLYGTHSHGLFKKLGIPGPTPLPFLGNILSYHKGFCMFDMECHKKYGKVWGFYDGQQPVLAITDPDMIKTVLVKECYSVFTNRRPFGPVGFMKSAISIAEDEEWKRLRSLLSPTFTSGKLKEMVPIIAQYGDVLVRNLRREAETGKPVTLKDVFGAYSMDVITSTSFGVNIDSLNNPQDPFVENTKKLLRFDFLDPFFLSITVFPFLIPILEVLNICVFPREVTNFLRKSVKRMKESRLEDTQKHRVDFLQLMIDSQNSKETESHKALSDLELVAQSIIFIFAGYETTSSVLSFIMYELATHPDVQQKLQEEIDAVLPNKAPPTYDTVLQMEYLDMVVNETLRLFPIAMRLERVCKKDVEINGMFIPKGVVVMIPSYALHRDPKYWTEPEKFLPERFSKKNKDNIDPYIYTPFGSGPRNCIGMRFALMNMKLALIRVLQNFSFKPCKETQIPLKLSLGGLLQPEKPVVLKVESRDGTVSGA

## CC1(C)CC(=O)C2=C(C1)OC(N)=C(C#N)[C@@H]2c1ccccc1[N+](=O)[O-]
[1]
  EC50: 22.3 µM (inconclusive)
[2]
  EC50: 23.9 µM (active)

## CC1CCCCN1Cc1nc2c(c(=O)n(C)c(=O)n2C)n1CCCc1ccccc1 (stereo not drawn)
[3]
  EC50: > 112 µM (not active)
[4]
  EC50: > 112 µM (not active)

## Cc1ccc(C2CC(c3ccccc3OC(F)F)Nc3ncnn32)cc1 (stereo not drawn)
[3]
  EC50: > 112 µM (not active)
[4]
  EC50: > 112 µM (not active)

## Cc1cccc(CCNC(=O)c2cc(S(=O)(=O)N3CCOCC3)cn2C)c1
[3]
  EC50: > 112 µM (not active)
[4]
  EC50: > 112 µM (not active)

## CCOc1ccc(NC(=O)CN(C)C(=O)C2CC(=O)N(c3ccc4c(c3)OCCO4)C2)cc1OCC (stereo not drawn)
[5]
  EC50: > 150 µM (not active)
[6]
  EC50: > 150 µM (not active)
[7]
  EC50: > 150 µM (not active)

## Cc1cccc(-n2cnc3c(sc4nc(N5CCOCC5)c5c(c43)CCCC5)c2=O)c1
[3]
  EC50: > 112 µM (not active)
[4]
  EC50: 50 µM (active)

## N#Cc1c(C#N)c(-c2ccccc2)n(-c2ccc(C(=O)O)cc2)c1N
[1]
  EC50: > 300 µM (not active)
[2]
  EC50: > 300 µM (not active)

## CCOC(=O)Nc1ccc2c(COC(=O)CNS(=O)(=O)c3cccc(Br)c3)cc(=O)oc2c1
[3]
  EC50: > 112 µM (not active)
[4]
  EC50: > 112 µM (not active)

## Oc1nc2ccc(Cl)cc2c(-c2ccccc2)c1SC(=S)N1CCCCC1
[8]
  AC50: > 380 µM (inactive)
[9]
  EC50: > 380 µM (inactive)

## CCc1ccccc1N1C(=O)NC(=O)/C(=C\c2cc(C)n(C)c2C)C1=O
[1]
  EC50: > 300 µM (not active)
[2]
  EC50: > 300 µM (inconclusive)

## Cc1c(NCc2cc(Cl)cc(Cl)c2O)c(=O)n(-c2ccccc2)n1C
[5]
  EC50: 4.76 µM (active)
[6]
  EC50: 21.1 µM (active)
[7]
  EC50: > 150 µM (not active)

## COc1ccc(C(=O)NC(=S)NC(C)(C)C)cc1Br
[3]
  EC50: > 112 µM (not active)
[4]
  EC50: > 112 µM (not active)
[10]
  AC50: 14.1 µM (inconclusive)

## CCCc1cc(C(=O)NC2CCCC2)no1
[3]
  EC50: > 112 µM (not active)
[4]
  EC50: > 112 µM (not active)

## Cc1cc(/C=C2/C(=O)NC(=O)N(c3ccc(Br)cc3)C2=O)c(C)n1C
[1]
  EC50: 52.2 µM (active)
[2]
  EC50: 53 µM (active)

## N#CC1=C(N)C(C#N)(C#N)[C@H](c2ccsc2)[C@H]2COCC=C12
[1]
  EC50: > 300 µM (not active)
[2]
  EC50: > 300 µM (not active)

## O=C(O)c1ccccc1-n1c(-c2ccccc2)cc2c1CCCC2=O
[1]
  EC50: > 300 µM (not active)
[2]
  EC50: > 300 µM (not active)

## CCCc1c(C(=O)NNc2cccc(Cl)c2)cnn1-c1ccccc1
[8]
  AC50: 10.7 µM (active)
[9]
  EC50: > 380 µM (inactive)

## O=C(CSC(=S)N1CCOCC1)c1cc(Br)cc(Br)c1O
[5]
  EC50: 25 µM (active)
[6]
  EC50: > 150 µM (not active)
[7]
  EC50: > 150 µM (not active)

## COc1ccc(/C=C2\N=C(C)OC2=O)cc1OC
[1]
  EC50: > 300 µM (not active)
[2]
  EC50: > 300 µM (not active)

## O=C(Cc1ccc(Br)cc1)Nc1nc2ccccc2[nH]1
[5]
  EC50: > 150 µM (not active)
[6]
  EC50: > 150 µM (not active)
[7]
  EC50: > 150 µM (not active)

## Cc1ccccc1C1CC(c2ccccc2OC(F)F)Nc2ncnn21 (stereo not drawn)
[3]
  EC50: > 112 µM (not active)
[4]
  EC50: > 112 µM (not active)

## Cc1cccc(-n2ncc3c2CCCC3NC(=O)CCN2Cc3ccccc3C2=O)c1C (stereo not drawn)
[5]
  EC50: > 150 µM (not active)
[6]
  EC50: > 150 µM (not active)
[7]
  EC50: > 150 µM (not active)

## CCCc1cc(C(=O)Nc2ccc(C(=O)c3ccc(F)cc3)cc2)n(C)n1
[5]
  EC50: 19.7 µM (active)
[6]
  EC50: 46.9 µM (active)
[7]
  EC50: > 150 µM (not active)

## Cc1ccccc1CCNC(=O)C1CCN(S(=O)(=O)c2ccc(-n3cnnn3)cc2)CC1
[3]
  EC50: > 112 µM (not active)
[4]
  EC50: > 112 µM (not active)

## COC(=O)c1c(NC(=O)/C=C/C(=O)O)sc(Cc2ccccc2)c1C
[8]
  AC50: 3.23 µM (active)
[9]
  EC50: 7.93 µM (active)

## COc1cc(C(c2c(C)n[nH]c2O)c2c(C)n[nH]c2O)cc(OC)c1OC
[8]
  AC50: 0.313 µM (active)
[9]
  EC50: 0.262 µM (active)

## Cc1ccc(S(=O)(=O)NCCC(=O)OCC(=O)NC(=O)c2cccn2C)cc1
[3]
  EC50: > 112 µM (not active)
[4]
  EC50: > 112 µM (not active)

## Nc1cccc2c(O)cccc12
[8]
  AC50: 22.1 µM (active)
[9]
  EC50: 15.5 µM (active)

## CC(C)=CCC/C(C)=C/Cc1c(O)ccc(C(=O)/C=C/c2ccc(O)cc2)c1O [XANTHOANGELOL]
[5]
  EC50: 1.05 µM (active)
[7]
  EC50: 1.68 µM (active)
[11]
  AC50: 9.49 µM (active)
[8]
  AC50: 3.19 µM (active)
[9]
  EC50: 88.4 µM (active)
